Blank lines part the entries; values can stand above or below the compound they belong to.
Columns and labels:
[1] = molecular target: T1, FZD9 (Homo sapiens, UniProt O00144); assay: NanoBRET screen HiBiT-FZD9 in HEK293; assay type: binding
T1 construct: purchased Promega (in-house HiBiT-GPCR construct library, NanoBRET)
T1 sequence (O00144 23-591): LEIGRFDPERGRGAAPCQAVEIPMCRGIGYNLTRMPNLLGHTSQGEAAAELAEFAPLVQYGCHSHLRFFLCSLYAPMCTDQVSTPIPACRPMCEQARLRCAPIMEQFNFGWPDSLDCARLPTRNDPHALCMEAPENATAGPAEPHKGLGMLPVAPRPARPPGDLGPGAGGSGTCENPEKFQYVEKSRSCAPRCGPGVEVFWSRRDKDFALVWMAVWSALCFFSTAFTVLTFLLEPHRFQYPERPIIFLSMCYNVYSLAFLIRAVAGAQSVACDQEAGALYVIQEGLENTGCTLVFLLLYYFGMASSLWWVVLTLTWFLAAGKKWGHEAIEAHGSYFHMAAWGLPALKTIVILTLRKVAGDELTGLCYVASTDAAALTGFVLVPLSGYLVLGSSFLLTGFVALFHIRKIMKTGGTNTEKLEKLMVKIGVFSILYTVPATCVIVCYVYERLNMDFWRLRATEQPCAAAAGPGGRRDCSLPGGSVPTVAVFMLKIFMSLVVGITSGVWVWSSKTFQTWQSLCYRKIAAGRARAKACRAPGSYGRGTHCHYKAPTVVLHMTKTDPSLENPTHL
Protocol: (§1) Each tracer candidate was screened across the entire library of HiBiT-GPCR constructs using NanoBRET as the detection modality. As depicted in Figure 4A, the specificity of interactions was evaluated through decrease in BRET due to competitive displacement of a bound tracer by excess parental compound. Each tracer was analyzed for binding to each HiBiT-GPCR fusion in the absence and in the presence of competing parental compound. Briefly, HEK293 cells were transfected with HiBiT-GPCR constructs diluted into promoterless DNA to reduce expression and maximize translocation to the cell surface. Each tracer candidate was then screened at concentrations of 1 μM and 0.1 μM across cells expressing these fusions. Cells were treated for 1.5 h with tracer either alone or in the presence of 20 μM competing parental compound (i.e., control). BRET was measured upon addition of purified LgBiT and subsequent complementation with HiBiT genetically fused to a GPCR. The specificity of interactions was assessed through a decrease in BRET signal due to competitive displacement of the bound tracer. To further gauge the robustness of these interactions, the fold response over the control (i.e., BRETtracer/BRETcontrol) was calculated. We chose a 1.5-fold response, which translates to ≥7-fold signal over noise as the minimal threshold required to score an interaction as positive. […]. Below we highlight the screening results obtained for our exemplary fluorescent tracers based on Clozapine, Amitriptyline and AZD1283.
(§2) HiBiT-GPCR DNA constructs were diluted in 10 mM Tris pH 8 to a final concentration of 0.01 μg/μL, arrayed in 96-well plates and stored at −20 °C. For transfection, HEK293 cells were suspended in Opti-MEM (without phenol red) supplemented with 2% fetal bovine serum (Seradigm) and 100 units/mL penicillin–streptomycin (Gibco) at a final concentration of 220,000 cells/mL and dispensed into white 96-well plates at 90 μL/well. Subsequent transfections and screens were carried using an Agilent Bravo Automated Liquid Handling Platform. First, the 96-well HiBiT DNA arrays were diluted 25-fold in Opti-MEM (without serum or phenol red) to a final concentration of 0.0004 μg/μL and 20 μL of the diluted DNAs were transferred into new 96-well plates. Next, promoterless carrier DNA (1 μg/μL) was diluted 25-fold (0.04 μg/μL) and then dispensed into the diluted arrays at 20 μL/well. Following brief mixing, Viafect transfection reagent (Promega) diluted 16-fold into Opti-MEM was dispensed into the plates at 40 μL/well. After mixing by pipetting, plates were incubated for 10 min on the pipetting station deck. The DNA-transfection reagent complexes were then added to plates containing cells. To facilitate the screen, 10 μL of DNA-transfection reagent complexes were added in duplicates to the top 4 and bottom 4 rows, resulting in two identical 48-well arrays per plate. Plates with transfected cells were incubated for 18–20 h at 37 °C/5% CO2. A screen of each tracer across the entire library using two different concentrations requires duplicate plates of transfected cells. Depending on the number of tracers being screened, transfections can be scaled up using the same ratios. The next day, for each tracer, four 20× screening solutions in tracer dilution buffer (Promega) were prepared: two duplicates at final concentration of 20 μM and two duplicates at a final concentration of 2 μM. A competing unmodified compound was added to one of each duplicate at a final concentration of 400 μM. The four resulting solutions were diluted 4-fold in Opti-MEM without serum or phenol red to generate 5× solutions (5 µM and 0.5 µM tracer +/− 100 μM competing compound). To screen the library, a BioTek MultiFlo FX liquid dispenser was used to dispense 22.5 µL of tracer solution to the top 4 rows and 22.5 µL tracer + competing compound solution to the 4 bottom rows. Plates were briefly mixed on an orbital shaker and incubated for 1.5 h at room temperature. […]

[2] = molecular target: T2, PDGFRB (Homo sapiens, UniProt P09619); assay: NanoBRET screen HiBiT-PDGFRB in HEK293; assay type: binding
T2 construct: purchased Promega (in-house HiBiT-GPCR construct library, NanoBRET)
T2 sequence (P09619 33-1106): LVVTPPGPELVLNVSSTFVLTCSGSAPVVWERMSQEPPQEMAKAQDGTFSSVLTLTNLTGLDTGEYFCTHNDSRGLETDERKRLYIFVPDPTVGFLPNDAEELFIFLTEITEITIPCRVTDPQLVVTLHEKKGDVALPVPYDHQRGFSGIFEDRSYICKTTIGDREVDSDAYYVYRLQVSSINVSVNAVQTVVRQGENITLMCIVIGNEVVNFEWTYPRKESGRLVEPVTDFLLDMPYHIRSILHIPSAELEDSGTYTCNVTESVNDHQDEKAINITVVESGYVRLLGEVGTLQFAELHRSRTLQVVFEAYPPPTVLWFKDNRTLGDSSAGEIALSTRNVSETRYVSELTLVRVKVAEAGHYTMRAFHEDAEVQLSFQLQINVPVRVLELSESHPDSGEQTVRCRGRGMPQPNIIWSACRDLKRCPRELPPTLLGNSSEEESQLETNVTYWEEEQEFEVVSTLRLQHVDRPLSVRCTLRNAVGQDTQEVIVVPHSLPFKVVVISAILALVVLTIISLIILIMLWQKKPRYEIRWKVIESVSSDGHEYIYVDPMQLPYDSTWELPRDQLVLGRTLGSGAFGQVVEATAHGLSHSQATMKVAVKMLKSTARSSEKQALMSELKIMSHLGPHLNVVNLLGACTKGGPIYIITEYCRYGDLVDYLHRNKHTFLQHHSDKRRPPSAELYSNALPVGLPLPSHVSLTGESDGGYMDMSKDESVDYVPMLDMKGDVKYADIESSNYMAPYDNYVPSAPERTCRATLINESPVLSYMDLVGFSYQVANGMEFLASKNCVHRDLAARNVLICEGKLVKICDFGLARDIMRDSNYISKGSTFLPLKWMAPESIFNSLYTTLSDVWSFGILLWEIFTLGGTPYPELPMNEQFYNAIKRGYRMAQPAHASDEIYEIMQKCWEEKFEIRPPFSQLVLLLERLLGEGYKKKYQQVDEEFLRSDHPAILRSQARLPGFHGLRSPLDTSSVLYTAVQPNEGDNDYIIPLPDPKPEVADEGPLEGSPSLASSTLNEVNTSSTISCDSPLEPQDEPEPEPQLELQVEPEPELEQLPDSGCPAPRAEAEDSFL
Protocol: as §1, §2

NanoBRET Fold Response ([1]; 0.1μM tracer): 1.17 | NanoBRET Fold Response ([1]; 1μM tracer): 1.15 | NanoBRET Fold Response ([2]; 0.1μM tracer): 0.56 | NanoBRET Fold Response ([2]; 1μM tracer): 0.56
SMILES: COc1ccc2c(n1)c(CCNC(C)=O)cn2CCNC(=O)CCc1ccc2n1[B-](F)(F)[N+]1=C(c3ccc[nH]3)C=CC1=C2 [Azamelatonin-1-NB590]

SMILES: CC(C)N(CC[C@H](c1ccccc1)c1cc(CCNC(=O)c2ccc(CNC(=O)CCc3ccc4n3[B-](F)(F)[N+]3=C(c5ccc[nH]5)C=CC3=C4)cc2)ccc1O)C(C)C [Tolterodine-BZ-NB590]
NanoBRET Fold Response ([1]; FZD9, tracer 0.1μM): 0.95 | NanoBRET Fold Response ([1]; FZD9, tracer 1μM): 1.04 | NanoBRET Fold Response ([2]; PDGFRB, tracer 0.1μM): 1.14 | NanoBRET Fold Response ([2]; PDGFRB, tracer 1μM): 1.21

SMILES: CN1CCN(C2=Nc3cc(Cl)ccc3Nc3ccc(CNC(=O)CCOCCOCCOCCOCCNC(=O)CCc4ccc5n4[B-](F)(F)[N+]4=C(c6ccc[nH]6)C=CC4=C5)cc32)CC1 [Clozapine-b-2-NB590]
NanoBRET Fold Response ([1]; FZD9, 0.1μM tracer): 1.02 | NanoBRET Fold Response ([1]; FZD9, 1μM tracer): 1.05 | NanoBRET Fold Response ([2]; PDGFRB, 0.1μM tracer): 1.02 | NanoBRET Fold Response ([2]; PDGFRB, 1μM tracer): 0.99

Source: PMC8151276, “An Integrated Approach toward NanoBRET Tracers for Analysis of GPCR Ligand Engagement” (Molecules, 2021)
